The subject of series [1] is gerbils. Description: Working memory and reference memory assay in gerbils. In kind it is in vivo. The conditions noted are these: 0.1% UMP diet for four weeks. From the text: Groups of ten gerbils fed control or 0.1% UMP diet for four weeks and trained to successfully find all of the food pellets as described above were then given a modified test in which only two arms of the maze (but always the same two) contained food pellet rewards. In this test, a working memory error is one in which a gerbil revisits an arm from which it has already taken the pellet that day.

In series [2] the test system is neurofilament-M (NF-M). The series can be described thus: Western blot of NF-M in striatum of aged rats on UMP diet. In kind it is in vivo. Here is the method:
Data were represented according to UMP treatment of six to sixteen measurements each group (means±S.E.M.). One-way ANOVA with Turkey's HSD post hoc tests were used to compare the difference among the treatments the Newman-Keuls multiple range test was used for the data in FIG. 13.
Striatal tissues were placed in Eppendorf tubes containing 200 μl lysis buffer (60 mM Tris-HCl, 4% SDS, 20% glycerol, 1 mM dithiothreitol, 1 mM AEBSF, 8 μM aprotinin, 500 μM bestatin, 15 μM E64, 200 μM leupeptin, 10 μM pepstatin A). The samples were sonicated, boiled (10 min), and centrifuged (14,000 g for 1 min at room temperature) The supernatant fluid was transferred to a clean tube, and total protein content was determined using the Bicinchoninic Acid assay (Sigma, St. Louis, Mo.).
Equal amounts of protein (40 μg protein/lane) were loaded for sodium dodecyl sulfate-polyacrylamide gel electrophoresis (4-15% SDS PAGE; Bio-Rad, Hercules, Calif.). Prior to gel electrophoresis, bromphenol blue solution (0.07%) was added to each sample. Proteins were separated, transferred onto polyvinylidene difluoride (PVDF) membranes (Immobilon-P, Millipore), and blocked with 5% bovine serum albumin (Tris-buffered saline/0.15% Tween 20) for 1 h. After 3 10 min rinses in Tris-buffered saline (TBST), blots were incubated in TBST with various antibodies against the proteins of interest, including NF-70, NF-M (1: 2000, 1: 5000, respectively; Calbiochem, La Jolla, Calif.) at 4° C. overnight on an orbital shaker. […] Films were digitized using a Supervista S-12 scanner with a transparency adapter (UMAX Technologies, Freemont, Calif.). Analysis was performed using the public domain NIH Image program (NIH V.1.61).

Series [3] in a line: Plasma uridine levels after oral UMP in humans. In kind it is in vivo. The settings on record: 500, 1000 or 2000 mg UMP orally; baseline and 1, 2, 4, 8 hr. Here is the method:
1-milliliter (mL) samples of heparinized plasma were spiked with 1 μg fluoro-uridine for use as an internal standard, then deproteinized by adding methanol (5 mL).
All steps were performed at 4° C. Boronate affinity columns (Affigel-601, Bio-Rad) were primed with two 5-mL ammonium acetate washes, samples were applied, and columns were washed again with ammonium acetate, after which the nucleosides were eluted with 0.1 N formic acid (7 mL). Eluates were lyophilized, then reconstituted in 100 μL water for HPLC analysis.
HPLC analysis was performed using a Beckman System Gold apparatus (Beckman Instruments) equipped with a Rainin Dynamax Microsorb C18 column (3 μm packing; 4.6×100 mm) at room temperature. The standard HPLC method is described in Lopez-Coviella et al, (J. Neurochem 65: 889-894, 1995). For modified HPLC, an isocratic elution buffer was used containing 0.004 N potassium phosphate buffer (pH 5.8) and 0.1% methanol instead of formic acid, flowing at 1 mL/min and heated to 35°.
Eight healthy subjects (5 male, 3 female, 27-67 years old) were instructed to fast overnight and given sequentially increasing doses (500, 1000, and 2000 mg) of disodium UMP (Numico, Wageningen, NL) at 7-8 AM on each of three days, separated by at least a three-day washout period. All subjects were given lunch. Blood samples were drawn over an eight-hour period into heparinized tubes. […]

Series [4] can be described thus: Body weight of aged rats on UMP diet. The settings on record: 2.5% UMP·2Na+ diet, 0-6 weeks.
Excerpt: Male middle aged Fischer 344 rats, 22-24 months old at the time of doing microdialysis, were obtained from National Institute on Aging (Harlan Sprague-Dawley, Indianapolis, Ind.). Rats were housed individually under standard husbandry conditions and exposed to 12 hr light/dark cycle with food and water provided ad libitum.
Rats were acclimated to the animal facility for more than 7 days before fed a control laboratory diet (Teklad Global 16% protein rodent diet, TD.00217, Harlan Telclad, Madison, Wis.), or this diet fortified with UMP·2Na^+ (2.5%, TD.03398, UMP·2Na^+; Numico Research, the Netherlands) for 6 weeks.
Rats were not fed with the research diet until at least 7 days later after their arrival. They were weighed at the time of beginning feeding (t=0), as well as 1, 2, 4, 6 weeks later. At time 0, rats were randomly assigned into two groups.
Series [5] can be described thus: Body weight of EC and IC rats on UMP diet. In kind it is in vivo, Sprague Dawley rats. The conditions noted are these: 0.1% UMP-2Na+ diet vs control groups. The procedure: Animals were maintained under standard environmental conditions (room temperature, 20-25° C.; relative humidity, 55-60%; light/dark schedule, 12/12). Seven pregnant Sprague Dawley rats (Charles River Laboratories) were obtained 1 wk prior to giving birth. […] At this time, thirty-two rats were matched according to body weight, and assigned to either IC or EC conditions.
Rats were housed in the same rack in plastic cages (52×32×20 cm high) with wire lids. Bedding and water were regularly changed, and animals were weighed each week, at which time general health assessments were made. Animals had ad libitim access to chow and water. EC rats were housed in groups of 2-3 animals Plastic toys (blocks, balls, PVC tubing, etc) placed in the EC cages were rotated between groups weekly; new toys were introduced monthly EC rats were taken to a “playroom” (12×6 ft; containing cabinets, desks, chairs, boxes, and toys) every other day for 45 min. The IC rats were housed individually, without toys, and handled three times per week to acclimatize the animals to experimenter handling and in order to alleviate fear and anxiety in subsequent behavioral training procedures. To avoid the typical weight gain caused by impoverished conditions (relative to enriched rats), IC rats were allowed to exercise three times per week for 15 min in an empty 4×6 ft room with only the experimenter present. […]

For the compound `O=c1ccn([C@@H]2O[C@H](COP(=O)([O-])[O-])[C@@H](O)[C@H]2O)c(=O)[nH]1.[Na+].[Na+]` [UMP, uridine-5′-monophosphate disodium], in series [1], the Reference memory errors entry was “reduced numbers” and the Working memory errors result is “reduced numbers”. The “NF-M level compared to control group” value in series [2] (UMP diet 1 week) was “did not increase”. The “NF-M level, of control values” in series [2] (UMP diet 6 weeks, striatum, p<0.01) is listed as 221±34%. Besides, the “NF-M level in striatum, of control values (second statement)” value in series [2] (feeding time not given) was 221±34%. For the same compound, in series [3], the Plasma uridine levels result is on record as “increased in response to oral UMP in a dose-dependent fashion”. The Body weight result in series [4] is given as “neither UMP-diet (vs. control) nor UMP time interaction affected body weight”. For the same compound, the Mean body weights result in series [5] is on record as “No significant differences”.

(Values after patent publication US8518882B2, “Methods and compositions for ameliorating or inhibiting decline in memory or intelligence or improving same” (priority 1998, dated 2013).)
